Where two headings read alike, the source gives them in different places. Each block holds one molecule with its values, some of them ahead of it.
How the values were obtained:
[1] = tested on: AGS gastric cancer cell line with KRAS G12D mutation; test: Proliferation inhibition on RAS cell lines measured by CTG (CellTiter Glo), AGS; assay type: cell-based; settings: Table 1, AGS cells, incubated for 5 days
Text: (§1) NCI-H358 is a human non-small cell lung cancer cell line with KRAS G12C mutation; AGS is a gastric cancer cell line with KRAS G12D mutation; SW620 is a colon cancer cell with KRAS G12V mutation; NCI-H460 is a non-small cell lung cancer cell with KRAS Q61H mutation; MKN1 is a wild-type gastric cancer cell with KRAS-amplified; LS513 is a colon cancer cell with KRAS G12D mutation; LoVo is a colon cancer cell with KRAS G13D mutation; NCI-H441 is a lung cancer cell with KRAS G12V mutation, and Capan-2 is a pancreatic cancer cell with KRAS G12V mutation.
(§2) The proliferation inhibitory effect of the compounds on various mutations was evaluated by determining the proliferation inhibitory activity of the compounds on these cell lines.
(§3) The assay was conducted on either 384-well plates or 96-well plates. The procedures are as follows:
(§4) The cell suspensions were added to 384- or 96-well plates (384-well plate: 50 μL; 96-well plate: 100 μL) except for peripheral wells. The plates were placed in a carbon dioxide incubator overnight. NCI-H358, AGS, NCI-H460, MKN-1, LS513, LoVo, and NCI-H441 were placed in a 5%, 370 carbon dioxide incubator overnight, and SW620 was placed in a 0%, 370 carbon dioxide incubator overnight. The HPD300 micro-dosing instrument was used to add the corresponding concentration of compound to each well (9-10 concentration gradients of compound were obtained by 3-fold dilution). Cell plates were incubated in a carbon dioxide incubator for 5-6 days. NCI-H358, AGS, NCI-H460 and MKN-1 were incubated at 5%, 37° incubator and SW620 was incubated at 0%, 370 incubator. On the day of plate measurement, the 384- or 96-well plates were first equilibrated at room temperature for 10-30 min, then CellTiter Glo reagent (384-well plate: 25 μL; 96-well plate: 100 μL) was added to the 384- or 96-well plate, shaken for 10 min away from light, and incubated for 10 min. The plates were placed into Victor NIVO or ENVIDION reader plates, and XLFit was utilized to plot the pharmacodynamic inhibition curve and calculate the IC50 value. “IC50>10 μM” is denoted by “*”, “10 μM≥IC50≥1 μM” is denoted by “**”, and “1 μM≥IC50>100 nM” is denoted by “***”, “IC50<100 nM” is denoted by “****”

[2] = tested on: NCI-H358 human non-small cell lung cancer cell line with KRAS G12C mutation; test: Proliferation inhibition on RAS cell lines measured by CTG, NCI-H358; assay type: cell-based; settings: Table 1, NCI-H358 cells, incubated for 6 days, CellTiter Glo, read-out: IC50 (H358 ^b)
Text: as §1, §2, §3, §4

[3] = tested on: SW620 colon cancer cell with KRAS G12V mutation; test: Proliferation inhibition on RAS cell lines measured by CTG, SW620; assay type: cell-based; settings: Table 1, SW620 cells, incubated for 6 days, CellTiter Glo, read-out: IC50 (SW620 ^c)
Text: as §1, §2, §3, §4

[4] = tested on: NCI-H460 non-small cell lung cancer cell with KRAS Q61H mutation; test: Proliferation inhibition on RAS cell lines measured by CTG, NCI-H460; assay type: cell-based; settings: Table 1, NCI-H460 cells, incubated for 6 days, CellTiter Glo, read-out: IC50 (NCI-H460 ^d)
Text: as §1, §2, §3, §4

[5] = tested on: MKN1 wild-type gastric cancer cell with KRAS-amplified; test: Proliferation inhibition on RAS cell lines measured by CTG, MKN1; assay type: cell-based; settings: Table 1, MKN1 cells, incubated for 6 days, CellTiter Glo, read-out: IC50 (MKN1 ^e)
Text: as §1, §2, §3, §4

[6] = tested on: LS513 colon cancer cell with KRAS G12D mutation; test: Proliferation inhibition on RAS cell lines measured by CTG, LS513; assay type: cell-based; settings: LS513 cells, incubated for 6 days, read-out: IC50 (LS513^f)
Text: as §1, §2, §3, §4

[7] = tested on: LoVo colon cancer cell with KRAS G13D mutation; test: Proliferation inhibition on RAS cell lines measured by CTG, LoVo; assay type: cell-based; settings: LoVo cells, incubated for 6 days, read-out: IC50 (LoVo^g)
Text: as §1, §2, §3, §4

[8] = tested on: NCI-H441 lung cancer cell with KRAS G12V mutation; test: Proliferation inhibition on RAS cell lines measured by CTG, NCI-H441; assay type: cell-based; settings: NCI-H441 cells, incubated for 6 days
Text: as §1, §2, §3, §4

[9] = Pharmacokinetic study in mice after intravenous administration; assay type: in vivo; settings: mouse, 5 mg/kg, male C57BL/6J mice, plasma
Protocol: (§5) After intravenous and oral administration in male C57BL/6J mice (6-8 weeks), plasma samples were collected through the orbital venous plexus at 8 time points (5 min, 15 min, 30 min, 1 h, 2 h, 4 h, 7 h, 24 h), and the collected blood samples were transferred to microcentrifuge tubes containing EDTA-K2 anticoagulant, and centrifuged at 4° C., 4,000 g. After 5 min, the supernatant was taken and stored in a refrigerator at −75° C. ±15° C. LC-MS/MS was used to detect the concentrations of the compounds in the plasma at different time points, and the relevant pharmacokinetic parameters […] were calculated using WinNonlin software.

[10] = Pharmacokinetic study in mice after oral administration; assay type: in vivo; settings: mouse, 30 mg/kg, male C57BL/6J mice, plasma
Protocol: as §5

[11] = tested on: Capan-2 pancreatic cancer cell with KRAS G12V mutation; test: Proliferation inhibition on RAS cell lines measured by CTG, Capan-2; assay type: cell-based; settings: Homo sapiens, 144 h; Table 2; Capan-2 cells, incubated for 6 days, CellTiter Glo; read-out: IC50 (Capan-2^i)
Text: as §1, §2, §3, §4

[12] = Homo sapiens, LS-513, 144 h, Table 1, CellTiter Glo
[13] = Homo sapiens, LoVo, 144 h, Table 1, CellTiter Glo
[14] = Homo sapiens, NCI-H441, 144 h, Table 1, CellTiter Glo
[15] = Homo sapiens, LS-513, 144 h, Table 2, CellTiter Glo

Structure (SMILES): CCc1c(F)ccc2cc(O)cc(-c3ncc4c(N5CC(C)(O)CCN5)nc(OCC56CCCN5CC(F)C6)nc4c3F)c12 (single isomer, unassigned) [Compound 2-1]
- IC50 [1]: < 100 nM
- IC50 [2]: < 100 nM
- IC50 [3]: < 100 nM
- IC50 [4]: 1000 to 10000 nM
- IC50 [5]: < 100 nM
- IC50 ([6]; Table 1, CellTiter Glo): < 100 nM
- IC50 ([7]; Table 1, CellTiter Glo): < 100 nM
- IC50 ([8]; Table 1, CellTiter Glo, read-out: IC50 (NCI-H441^h)): 100 to 1000 nM

Structure (SMILES): CCc1c(F)ccc2cc(O)cc(-c3ncc4c(N5CCCCCN5)nc(OC[C@@]56CCCN5C[C@H](F)C6)nc4c3F)c12 [Compound 3]
- IC50 ([1]; Homo sapiens, 120 h): < 100 nM
- IC50 ([2]; Homo sapiens, 144 h): < 100 nM
- IC50 ([3]; Homo sapiens, SW-620, 144 h): < 100 nM
- IC50 ([4]; Homo sapiens, 144 h): 100 to 1000 nM
- IC50 ([5]; Homo sapiens, MKN-1, 144 h): < 100 nM

Structure (SMILES): C#Cc1c(F)ccc2cc(O)cc(-c3ncc4c(N5CCCCCN5)nc(OC[C@@]56CCCN5C[C@H](F)C6)nc4c3F)c12 [Compound 4]
- IC50 ([1]; Homo sapiens, 120 h): < 100 nM
- IC50 ([2]; Homo sapiens, 144 h): < 100 nM
- IC50 ([3]; Homo sapiens, SW-620, 144 h): < 100 nM
- IC50 ([4]; Homo sapiens, 144 h): 100 to 1000 nM
- IC50 ([5]; Homo sapiens, MKN-1, 144 h): < 100 nM
- IC50 ([6]; Homo sapiens, LS-513, 144 h, Table 1, numeric value): 3.6 nM
- IC50 [6, 12]: < 100 nM
- IC50 ([7]; Homo sapiens, LoVo, 144 h, Table 1, numeric value): 7.8 nM
- IC50 [7, 13]: < 100 nM
- IC50 ([8]; Homo sapiens, NCI-H441, 144 h, Table 1, numeric value): 3.6 nM
- IC50 [8, 14]: < 100 nM
- AUC(0-inf) [9]: 24300 ng·h/mL
- AUC(0-t) [9]: 24300 ng·h/mL
- C0 [9]: 96100 ng/mL
- clearance [9]: 3.43 mL/min/kg
- half-life ([9]; 5% DMSO + 10% Solutol HS15 + 85% (20% HP-β-CD in water)): 2.63 h
- Vd ([9]; read-out: Vss): 0.205 L/kg
- AUC(0-inf) [10]: 10400 ng·h/mL
- AUC(0-t) [10]: 10400 ng·h/mL
- Cmax [10]: 2290 ng/mL
- Tmax [10]: 4 h
- half-life ([10]; 0.1% Tween 80 + 0.5% MC in water): 1.89 h

Structure (SMILES): C#Cc1c(F)ccc2cc(O)cc(-c3ncc4c(N5CCOCCN5)nc(OC[C@@]56CCCN5C[C@H](F)C6)nc4c3F)c12 [Compound 7]
- IC50 [1]: < 100 nM
- IC50 [2]: < 100 nM
- IC50 [3]: < 100 nM
- IC50 [4]: 1000 to 10000 nM
- IC50 [5]: 100 to 1000 nM

Structure (SMILES): CCc1c(F)ccc2cc(O)cc(-c3ncc4c(N5CCOCCN5)nc(OC[C@@]56CCCN5C[C@H](F)C6)nc4c3F)c12 [Compound 8]
- IC50 ([1]; Homo sapiens, 120 h): < 100 nM
- IC50 ([2]; Homo sapiens, 144 h): < 100 nM
- IC50 ([3]; Homo sapiens, SW-620, 144 h): < 100 nM
- IC50 ([4]; Homo sapiens, 144 h): 100 to 1000 nM
- IC50 ([5]; Homo sapiens, MKN-1, 144 h): < 100 nM

Structure (SMILES): C#Cc1c(F)ccc2cc(O)cc(-c3ncc4c(N5CCCCCO5)nc(OC[C@@]56CCCN5C[C@H](F)C6)nc4c3F)c12 [Compound 9]
- IC50 [6, 12]: < 100 nM
- IC50 [7, 13]: < 100 nM
- IC50 [8, 14]: < 100 nM

Structure (SMILES): CCc1c(F)ccc2cc(O)cc(-c3ncc4c(N5CCCCCO5)nc(OC[C@@]56CCCN5C[C@H](F)C6)nc4c3F)c12 [Compound 10]
- IC50 [6, 12]: < 100 nM
- IC50 [7, 13]: 100 to 1000 nM
- IC50 [8, 14]: 100 to 1000 nM

Structure (SMILES): C#Cc1c(F)ccc2cccc(-c3ncc4c(N5CCCCCN5)nc(OC[C@@]56CCCN5C[C@H](F)C6)nc4c3F)c12 [Compound 11]
- IC50 [6, 12]: < 100 nM
- IC50 [7, 13]: 100 to 1000 nM
- IC50 [8, 14]: 100 to 1000 nM

Structure (SMILES): CCc1c(F)ccc2cc(O)cc(-c3ccc4c(N5CCCCCN5)nc(OC[C@@]56CCCN5C[C@H](F)C6)nc4c3)c12 [Compound 27]
- IC50 [6, 15]: 100 to 1000 nM
- IC50 [11]: 1000 to 10000 nM

The remaining lines, values ahead:

- IC50 [6, 15]: < 100 nM
- IC50 [11]: 100 to 1000 nM
Structure (SMILES): CCc1c(F)ccc2cc(O)cc(-c3ncc4c(N5CCCCCN5)nc(OCC5(CN(C)C)CC5)nc4c3F)c12 [Compound 28]

- IC50 [6, 15]: < 100 nM
- IC50 [11]: < 100 nM
Structure (SMILES): C#Cc1c(F)ccc2cc(O)cc(-c3ncc4c(N5CCCCCN5)nc(OCC5(CN6CCOCC6)CC5)nc4c3F)c12 [Compound 29]

- IC50 [6, 15]: < 100 nM
- IC50 [11]: 100 to 1000 nM
Structure (SMILES): C#Cc1c(F)ccc2cc(O)cc(-c3nc(OC)c4c(N5CCCCCN5)nc(OC[C@@]56CCCN5C[C@H](F)C6)nc4c3F)c12 [Compound 33]

- IC50 [6, 15]: < 100 nM
- IC50 [11]: 100 to 1000 nM
Structure (SMILES): Oc1cc(-c2ncc3c(N4CCCCCN4)nc(OC[C@@]45CCCN4C[C@H](F)C5)nc3c2F)c2c(Cl)cccc2c1 [Compound 35]

- IC50 [6, 15]: < 100 nM
- IC50 [11]: < 100 nM
Structure (SMILES): C#Cc1cccc2cc(O)cc(-c3ncc4c(N5CCCCCN5)nc(OC[C@@]56CCCN5C[C@H](F)C6)nc4c3F)c12 [Compound 36]

Source: US20240425512A1, “NITROGEN-CONTAINING HETEROCYCLIC COMPOUND, PHARMACEUTICAL COMPOSITION THEREOF AND APPLICATION THEREOF” (280 Bio, Inc., priority 2023, published 2024)
